Measured values published in patent US20120129842A1, “BISTHIAZOLE INHIBITORS OF PRO-MATRIX METALLOPROTEINASE ACTIVATION” (priority 2010, published 2012).

Key:
proMMP9 = target: T1, proMMP9 (Homo sapiens, UniProt P14780); assay: Activation of proMMP9 by human fetal lung fibroblast (HFL-1) cultures (Western blot); assay type: cell-based
T1 construct: host or cells: HFL-1 human fetal lung fibroblasts, TNFα plus human neutrophil elastase
Experimental: Activation of proMMP9 by Human Fetal Lung Fibroblast Cultures Example 64 was assessed additionally for ability to block the maturation of proMMP9 to active MMP9 in cultures of human fetal lung fibroblasts (HFL-1, American Type Culture Collection #CCL-153). Unlike rat synoviocytes, HFL-1 cells were unable to process proMMP9 to the active form without addition of neutrophil elastase. […] Rather, the function of elastase in this assay may be to inactivate tissue inhibitors of matrix metalloproteinases (TIMPs) that repress endogenous pathways of MMP9 activation (Am J Respir Grit Care Med; 1999; 159:1138-46).
HLF-1 were maintained in monolayer culture in DMEM with 10% FCS and were used between passage numbers 5-15. HLF-1 were embedded in collagen gels as described for rat SCW synoviocytes (vida supra). Half mL gels containing 0.4 million cells were dislodged into wells of 12 well Costar plates containing 1 mL/well of DMEM adjusted to contain 0.05% BSA and 100 ng/mL human TNFα (R&D Systems Cat #210-TA/CF). After overnight culture (37° C. and 5% CO2) wells were adjusted to contain an additional 0.5 mL of DMEM containing 0.05% BSA and with or without 13.2 μM Example 64 (final concentration was 3.3 μM Example 64). Next, cultures were adjusted to contain 30 nM human elastase (Innovative Research). The plates were cultured an additional 72 hrs, at which time MMP9 secreted into the conditioned media was bound to gelatin-sepharose and evaluated by Western blot analysis as described for the rat synoviocyte cultures (vida supra). mAb-51/82 detected three forms of MMP9 in HFL-1 cultures.
A second experiment was performed to determine if the 80 kD form was mature active MMP9 and to determine the potency of Example 64 as an inhibitor of MMP9 maturation in this assay. HFL-1 cells embedded in collagen gels were cultured as described above in the presence of TNFα overnight and the cultures were then adjusted to contain 30 nM elastase and graded concentrations of Example 64 for an additional 72 hrs at which time MMP9 secreted into the conditioned media was bound to gelatin-sepharose and evaluated by Western blot analysis for active MMP9 using pAb-1246 raised against the N-terminal neoepitope of active MMP9 (Table 5). In the absence of Example 64, pAb-1246 readily detected MMP9 with an electrophoretic mobility of approximately 80 kD. […] Inhibition occurred over a dose range with an IC50 of approximately 0.3 μM Example 64.

[1] = target: T2, MMP9 mediated gelatinase activity (Rattus norvegicus, UniProt P50282); assay: Liver in situ zymography of SCW-induced rats dosed with compound; assay type: in vivo; settings: for Intensity (RLU × 10^6) Rat 1 / Intensity (RLU × 10^6) Rat 2 / Intensity (RLU × 10^6) Rat 3 / Intensity (RLU × 10^6) Mean: Day 25-28, liver; for Intensity (RLU × 10^6) Mean: n=3
T2 construct: from tissue; host or cells: liver cryosections of female Lewis rats
Text: In situ zymography provides an alternative approach to assess active MMP9 in tissues (Frederiks). Tissue sections are overlain with fluorescene-conjugated gelatin wherein the conjugation is sufficiently dense to cause the fluorescene to be dye-quenched (DQ). Proteolytic degradation of the DQ-gelatin releases the fluorescene from the quenching effect giving rise to bright green fluorescence at the site of degradation. Because in situ zymography requires the use of frozen sections, calcified tissues are problematic. However, an additional feature of the SCW arthritis model is the development of hepatic granulomatous disease (J Immunol; 1986; 137:2199-2209), and MMP9 reportedly plays a role in macrophage recruitment in the granulomas response to mycobacteria (Infect Immun; 2006; 74:6135-6144). Consequently, granulomatous livers from SCW-treated rats were assessed for active MMP9 by in situ zymography.
As described above, Female Lewis (LEW/N) rats, 5-6 weeks of age (80-100 g) were injected (i.p.) with saline or SCW PG-PS. On day 28, when the granulomatous response was well established, animals were sacrificed and livers were frozen in OCT cryo-sectioning medium and 10 μm sections were cut on a Cryome HM 500 M cryotome and mounted on glass microscope slides. Sections were air dried briefly. MMP9 was confirmed as the source of the gelatinase activity in the liver by treating liver sections with monoclonal antibodies directed against the active site of the two major gelatinases MMP9 and MMP2. Liver sections overlain with 50 μL of 100 μg/mL neutralizing mouse monoclonal antibodies directed against MMP9 (Calbiochem, clone 6-6B), or MMP2 (Millipore, clone CA-4001), or with PBS for 1 hr at room temperature. Tissues were rinsed once with PBS, blotted, and briefly air dried and then overlain with DQ-gelatin (Invitrogen) dissolved to 1 mg/mL in deionized water and then diluted 1:10 in 1% wt/vol low gelling point agarose type VII (Sigma) in PBS. The sections were covered with coverslips, incubated in the dark at room temperature for 20 min, and imaged on an Olympus IX80 inverted microscope fitted with fluorescence optics, using SlideBook™ imaging software (Intelligent Imaging Innovations, Inc., Philadelphia, Pa.; version 5.0). Fluorescence intensity was determined (Table 8). When compared to a saline-treated rat, gelatinase activity was abundantly expressed in granulomatous liver sections obtained from a rat with SCW arthritis.
Next, liver in situ zymography was used to assess the relative presence of active MMP9 in rats dosed with vehicle vs. Example 64. Female Lewis (LEW/N) rats, 5-6 weeks of age (80-100 g) were injected (i.p.) with saline or SCW PG-PS. Commencing on day 25, randomized groups of rats (n=3 rats/group) received vehicle or 20 or 50 mg/kg Example 64 BID by oral gavage. Vehicle consisted of an aqueous mixture containing 2% (v:v) N-methylpyrrolidone, 5% (v:v) glycerine, and 20% (w:v) captisol. Treatment continued daily through the morning of day 28. Four hrs after the AM dose on day 28, rats were sacrificed and livers assessed for active MMP9 by in situ zymography (Table 9). Gelatinase activity was increased markedly in SCW-induced rats, but activity was reduced by approximately 80% in animals treated with 50 mg/kg Example 64.

T1 sequence (P14780 20-707 limits assumed): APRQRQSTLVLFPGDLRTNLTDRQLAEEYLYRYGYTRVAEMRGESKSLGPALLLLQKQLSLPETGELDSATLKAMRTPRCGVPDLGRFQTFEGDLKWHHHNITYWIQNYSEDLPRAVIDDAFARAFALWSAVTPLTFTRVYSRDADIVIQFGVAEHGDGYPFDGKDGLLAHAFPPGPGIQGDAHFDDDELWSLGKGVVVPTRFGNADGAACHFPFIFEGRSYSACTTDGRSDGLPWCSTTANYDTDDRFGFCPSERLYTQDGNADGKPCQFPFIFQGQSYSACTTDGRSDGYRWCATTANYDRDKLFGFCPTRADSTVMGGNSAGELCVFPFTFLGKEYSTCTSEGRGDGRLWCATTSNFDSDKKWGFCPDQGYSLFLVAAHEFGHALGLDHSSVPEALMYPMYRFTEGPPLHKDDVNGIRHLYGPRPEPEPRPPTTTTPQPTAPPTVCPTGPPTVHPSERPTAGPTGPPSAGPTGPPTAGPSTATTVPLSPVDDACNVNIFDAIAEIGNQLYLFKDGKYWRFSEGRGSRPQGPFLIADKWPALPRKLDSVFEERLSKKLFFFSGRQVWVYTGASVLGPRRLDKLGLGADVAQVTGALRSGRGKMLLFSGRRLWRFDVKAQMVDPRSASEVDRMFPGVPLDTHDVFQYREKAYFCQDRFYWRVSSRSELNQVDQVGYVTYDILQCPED
T2 sequence (P50282 108-708): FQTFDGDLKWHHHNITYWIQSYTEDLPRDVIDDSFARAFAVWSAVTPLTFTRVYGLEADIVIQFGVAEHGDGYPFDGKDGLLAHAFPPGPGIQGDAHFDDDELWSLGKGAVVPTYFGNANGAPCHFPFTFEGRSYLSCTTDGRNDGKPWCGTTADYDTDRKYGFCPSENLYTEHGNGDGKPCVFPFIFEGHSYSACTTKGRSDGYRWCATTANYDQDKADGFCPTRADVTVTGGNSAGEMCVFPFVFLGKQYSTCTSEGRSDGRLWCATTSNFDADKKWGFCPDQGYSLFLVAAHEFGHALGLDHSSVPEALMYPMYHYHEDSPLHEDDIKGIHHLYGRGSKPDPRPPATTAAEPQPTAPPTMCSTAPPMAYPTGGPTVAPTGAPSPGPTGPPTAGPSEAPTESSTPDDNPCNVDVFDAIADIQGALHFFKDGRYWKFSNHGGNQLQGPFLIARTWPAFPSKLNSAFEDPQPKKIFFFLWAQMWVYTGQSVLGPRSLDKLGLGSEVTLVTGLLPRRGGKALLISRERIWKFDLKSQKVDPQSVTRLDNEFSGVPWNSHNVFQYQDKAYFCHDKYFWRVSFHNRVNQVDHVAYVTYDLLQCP

For `Cc1nc(C)c(-c2csc(Nc3cc(S(N)(=O)=O)ccc3OC(C)C)n2)s1` [Example 64, 3-(2′,4′-Dimethyl-[4,5′]bithiazolyl-2-ylamino)-4-isopropoxy-benzenesulfonamide.HBr], the “Signal (INT*mm^2) Total” value (proMMP9; 3.3 μM, HFL-1, mAb-L51/82, 30 nM elastase, 72 hrs) was 91346 INT*mm^2, the inhibition at 0.12 µM (proMMP9; HFL1, 0.12 μM, HFL-1, 80 kD band, pAb-1246) was 0% and the inhibition at 0.37 µM (proMMP9; HFL1, 0.37 μM, HFL-1, 80 kD band, pAb-1246) was 73%. For the same compound, the inhibition at 1.1 µM (proMMP9; HFL1, 1.1 μM, HFL-1, 80 kD band, pAb-1246) was 99%, the inhibition at 3.3 µM (proMMP9; HFL1, 3.3 μM, HFL-1, 80 kD band, pAb-1246) was 100% and the inhibition at 10 µM (proMMP9; HFL1, 10 μM, HFL-1, 80 kD band, pAb-1246) was 100%. The “Intensity (RLU × 10^6) Rat 1” value ([1]; 20 mg/kg BID oral) was 43.0 RLU × 10^6, the “Intensity (RLU × 10^6) Rat 2” value ([1]; 20 mg/kg BID oral) was 69.0 RLU × 10^6 and the “Intensity (RLU × 10^6) Rat 3” value ([1]; 20 mg/kg BID oral) was 53.7 RLU × 10^6. For the same compound, the “Intensity (RLU × 10^6) Mean” value ([1]; 20 mg/kg BID oral) was 55.2 RLU × 10^6, the “reduction of gelatinase activity in liver” value ([1]; 50 mg/kg BID oral, Day 25-28) was “approximately 80%” and the “Intensity (RLU × 10^6) Rat 1” value ([1]; 50 mg/kg BID oral) was 3.2 RLU × 10^6. The “Intensity (RLU × 10^6) Rat 2” value ([1]; 50 mg/kg BID oral) was 25.6 RLU × 10^6, the “Intensity (RLU × 10^6) Rat 3” value ([1]; 50 mg/kg BID oral) was 4.5 RLU × 10^6 and the “Intensity (RLU × 10^6) Mean” value ([1]; 50 mg/kg BID oral) was 11.1 RLU × 10^6.
